Read-outs that look alike come from different tables or passages of the source. Each block holds one compound with its values, some of them ahead of it.
Legend:
[1] = Pharmacokinetic test in mice (low dose); type: in vivo, Balb/c mice; details: mouse
Experimental: The compounds of the present disclosure were administered to Balb/c mice by single intravenous injection and oral gavage, and the plasma of the mice at each time point was collected. The concentration of the compounds to be tested in BALB/C plasma was detected using the LC-MS/MS analysis method, and pharmacokinetic analysis was performed.
The mixture was vortexed, shaken, and ultrasonicated. The remaining volume of 25% sulfobutylether-β-cyclodextrin (sterilized) was added to prepare the final concentration solution or suspension.
Intravenous injection formulations will be directly administered in animal experiments without filtration. The IV drug preparation vials were disinfected in an infrared sterilization cabinet one day in advance.
Intravenous injection: Administration was performed via the tail vein. After the needle was inserted, the syringe was slowly […].
Gavage: Gavage needle and syringe of an appropriate type were selected. The gavage needle was inserted from the root of the tongue into the esophagus until it reached near the cardia of the stomach, then the drug formulation was injected, and the gavage needle was withdrawn. When disposable plastic gavage needles were used, one needle was used for each group.
At each time point, 60 µL of whole blood was collected from the submandibular vein or tail vein (except for the IV group). The blood sample was added to a pre-cooled anticoagulant blood collection tube containing anticoagulant EDTA-K2 (1 µL, 15% EDTA-K2 solution), placed on wet ice, and centrifuged (3000 g, 4 °C, 10 min) within 1 h. The plasma was immediately collected after centrifugation, transferred to an EP tube, and stored at -90 °C to -60 °C.
Plasma concentration detection: A developed LC-MS/MS method was used to detect the compounds in plasma.
The plasma concentration-time data were analyzed using a non-compartmental model in the Phoenix® WinNonlin® (Version 8.2, Pharsight, Mountain View, CA).

[2] = system: NCI-H2452 (NF2 wide-type); experiment: Inhibition of cell proliferation (CellTiter-Lumi); type: cell-based; details: Homo sapiens, 72 h + another 72 h treatment
Experimental: (§1) NCI-H2052 (NF2 mutant), NCI-H226 (NF2 mutant), NCI-H2452 (NF2 wide-type), NCI-H28 (NF2 wide-type), and MSTO-211H (NF2 wide-type) cells were cultured in RPMI 1640 complete media.
(§2) The normally growing cells described above were digested with a trypsin cell-digesting solution, centrifuged, counted, and then plated in a 96-well plate at a density of 1000 cells per well. Administration was performed 24 h after the cell plating. Inhibitors at different concentration gradients were added at 10 µL per well, and three replicate wells were set for each concentration point. The starting concentration was 20 µM and diluted 8 times with a 4-fold gradient. A corresponding negative control group treated with 0.1% DMSO was also set up. After 72 h of drug treatment, the cell culture plate to be tested was taken out of the incubator. The culture medium in the 96-well plate was pipetted, and 190 µL of fresh RPMI 1640 complete medium was added. Another administration was performed, and the cells were cultured for another 72 h. The 96-well plate was taken out and allowed to equilibrate at room temperature for 10 min. […] After shaking for two minutes, the mixture was reacted at room temperature for 10 min. Then, 150 µL of liquid was pipetted from the transparent 96-well plate and transferred to a white 96-well plate for chemiluminescence reading. The background value was subtracted from the value for each well to calculate the cell survival rate. Survival rate (%) = […]. Sample is the chemiluminescence of the drug-treated group, and Vehicle is the […] of the DMSO control group. A sigmoidal dose-survival rate curve was plotted using a non-linear regression model in the GraphPad Prism 7.0 software, and the IC50 values or GI50 values were calculated.

NCI-H28 (NF2 wide-type) = experiment: Inhibition of cell proliferation (CellTiter-Lumi); type: cell-based; details: Homo sapiens, 72 h + another 72 h treatment
Experimental: as §1, §2

[3] = system: YAP-TEAD transcription complex; experiment: YAP-TEAD reporter gene assay (dual luciferase, stably transfected 293T cells); type: cell-based; details: Homo sapiens, HEK-293T
Experimental: YAP-TEAD reporter gene The YAP-TEAD reporter gene assay was performed as follows. Firstly, the 8xGTIIC promoter sequence ([…] GTACTGTTGGTAAA) was constructed into a pGL4.20(luc2-Puro) plasmid, and the TK promoter ([…]) unrelated to the hippo pathway was constructed into a pGL4.78(hRlucCP/Hygro) plasmid, thereby constructing stably transfected 293T cells that can stably and continuously express the transcriptional activity of the YAP-TEAD transcription complex. After selection and identification of individual clones, the clones were grown and maintained in a DMEM medium containing 10% fetal bovine serum, penicillin-streptomycin solution, 1 µg/mL puromycin, and 150 µg/mL hygromycin. To perform reporter gene assays with the compounds to be tested, the well-growing cells described above were plated in a 384-well plate at a cell density of 3000 cells per well, with 90 µL per well. The periphery was sealed with an appropriate amount of PBS to prevent evaporation of water from the peripheral wells. Administration was performed on the next day after the cell plating. The test compounds were added at different concentration gradients, and three replicate wells were set for each concentration point. The compound concentration started at 5 µM and was diluted seven times with a 5-fold gradient. A corresponding negative control group treated with DMSO was also set up. After 24 h of drug treatment, the detection reagents were prepared first. The Dual-Lumi™ Firefly luciferase detection reagent and Dual-Lumi™ Renilla luciferase detection buffer were dissolved and brought to room temperature. […]. According to the amount of 100 µL of Dual-Lumi™ Renilla luciferase detection working solution required for the detection of each sample, an appropriate amount of Dual-Lumi™ Renilla luciferase detection working solution was prepared. […]. The cell culture plate was taken out and allowed to equilibrate at room temperature for 10 min (usually no more than 30 min). Then, 100 µL of Dual-Lumi™ Firefly luciferase detection reagent was added to each well of a 96-well plate (25 µL per well for the 384-well plate), and the mixture was mixed well. The mixture was then incubated at room temperature (about 25 °C) for 10 min to stabilize the luminescent signal, and then chemiluminescence was detected using a multimode microplate reader with a chemiluminescence detection function. Subsequently, the detection of Renilla luciferase began. Firstly, 100 µL of Dual-Lumi™ Renilla luciferase detection working solution was added to each well of a […] (25 µL per well for the 384-well plate), and the mixture was mixed well. The mixture was then incubated at room temperature (about 25 °C) for 10 min to stabilize the luminescent signal. Finally, chemiluminescence was detected using a multimode microplate reader with a chemiluminescence detection function. The obtained data were analyzed using GraphPad Prism 7.0 software. A sigmoidal dose-survival rate curve was plotted using a non-linear regression model, and the IC50 values were calculated.

in vivo = details: mouse, plasma, po, 100 mg/kg
Experimental: After adding 5% DMSO, the mixture was vortexed. 15% HS15 was then added, and the mixture was vortexed again. Finally, a 10% aqueous cyclodextrin solution was added, and the resulting mixture was vortexed to prepare the final concentration solution or suspension.

[4] = Saturated solubility in FaSSIF solution; type: physicochemical; details: room temperature, stirred overnight
Experimental: Efficacy Experimental Example 9: Test of Saturated Solubility of Samples in FaSSIF Solution
About 0.21 g of sodium hydroxide, about 2.24 g of sodium dihydrogen phosphate dihydrate, and 3.09 g of sodium chloride were weighed out and dissolved in 500 mL of water, and after dissolution, the pH was adjusted to 6.5 with 1 N sodium hydroxide or 1 N hydrochloric acid.
112 mg of FaSSIF solid was weighed out and placed in a 50 mL volumetric flask, and the buffer described above was added for dissolution. The resulting solution was diluted to volume, mixed well, and left to stand at room temperature for 2 h or more.
Test sample: About 1 mg of the test sample was taken, and 1 mL of FaSSIF solution was added. The mixture was stirred at room temperature overnight and centrifuged, and the supernatant was collected and injected for analysis.
Reference sample solution: About 1.5 mg of the test sample was precisely weighed out and placed in a 50 mL volumetric flask, and DMF was added for dissolution. The resulting solution was diluted to volume and mixed well.
The peak of the main component of the reference sample and the peak of the test sample with the same retention time were integrated, and the concentration thereof in the FaSSIF solution was calculated according to the external standard method.

[5] = 293T reporter cells, 24 h of drug treatment, read-out: IC50

bioavailability ([1]; Balb/c, in vivo): 81%
AUC(0-t) ([1]; Balb/c, in vivo, iv, 2 mg/kg): 1.24 µM·h
clearance ([1]; Balb/c, in vivo, iv, 2 mg/kg): 70.8 mL/min/kg
half-life ([1]; Balb/c, in vivo, iv, 2 mg/kg): 1.4 h
AUC(0-t) ([1]; Balb/c, in vivo, po, 10 mg/kg): 4.87 µM·h
Cmax ([1]; Balb/c, in vivo, po, 10 mg/kg): 0.653 µM
half-life ([1]; Balb/c, in vivo, po, 10 mg/kg): 5.6 h
SMILES: CC(C)NC(=O)c1ccc2c(Oc3ccc(C(F)(F)F)cc3)cccc2c1 [Comparative compound B1, reference compound]

IC50 [2]: > 20000 nM
IC50 (NCI-H28 (NF2 wide-type)): > 5000 nM
SMILES: CP(C)(=O)c1ccc2c(Oc3ccc(OC(F)(F)F)cc3)cccc2c1 [Example 27]

SMILES: Cn1cnc(-c2cc(P3(=O)CCOCC3)ccc2Nc2ccc(C(F)(F)F)cc2)c1 [Example 23]
IC50 ([3]; 24 h): 27.4 nM

IC50 [3, 5]: 191 nM
IC50 [2]: > 5000 nM
IC50 (NCI-H28 (NF2 wide-type)): > 5000 nM
SMILES: Cn1cnc(-c2cc(P(C)(C)=O)cnc2Nc2ccc3c(c2)OC(F)(F)O3)c1 [Example 34]

SMILES: CP(C)(=O)c1cnc(Nc2ccc(Cl)cc2)c(-c2cn3c(n2)CCC3)c1 [Example 38]
IC50 ([3]; 24 h): 28.7 nM

SMILES: CP(C)(=O)c1ccc(Nc2ccc(C(F)(F)F)cc2)c(-c2cn3c(n2)CCC3)c1 [Example 21]
IC50 ([3]; 24 h): 7.46 nM

SMILES: Cn1cnc(-c2cc(P(C)(C)=O)ccc2Nc2ccc3c(c2)OC(F)(F)O3)c1 [Example 30]
IC50 ([3]; 24 h): 23.7 nM

IC50 [3, 5]: 4.65 nM
AUC(0-t) (in vivo): 2160 µM·h
IC50 [2]: > 1250 nM
IC50 (NCI-H28 (NF2 wide-type)): > 1250 nM
AUC(0-t) ([1]; plasma, mice, IV 2 mg/kg, read-out: AUClast): 50.8 µM·h
clearance ([1]; plasma, mice, IV 2 mg/kg, read-out: Cl (converted)): 0.4 mL/min/kg
half-life ([1]; plasma, mice, IV 2 mg/kg, read-out: T1/2 (converted)): 63.5 h
bioavailability ([1]; plasma, mice, PO 10 mg/kg vs IV 2 mg/kg, read-out: F%): 99%
AUC(0-t) ([1]; plasma, mice, PO 10 mg/kg, read-out: AUClast): 251 µM·h
Cmax ([1]; plasma, mice, PO 10 mg/kg, read-out: Cmax): 13.3 µM
half-life ([1]; plasma, mice, PO 10 mg/kg, read-out: T1/2 (converted)): 17 h
FaSSIF(pH = 6.5) [4]: 223.4 ug/mL
SMILES: Cc1cc(Oc2ccc(C(F)(F)F)cc2)c2ccc(P(C)(C)=O)cc2c1 [Example 29]

SMILES: CP(C)(=O)c1cnc(Oc2ccc(C(F)(F)F)cc2)c(-c2cn3c(n2)CCC3)c1 [Example 9]
IC50 ([3]; 24 h): 160 nM
MRT ([1]; in vivo, mice, IV 2 mg/kg): 1.7 h
AUC(0-t) ([1]; in vivo, mice, IV 2 mg/kg, read-out: AUClast): 5.74 µM·h
clearance ([1]; in vivo, mice, IV 2 mg/kg, read-out: Cl (converted)): 13.3 mL/min/kg
half-life ([1]; in vivo, mice, IV 2 mg/kg, read-out: T1/2 (converted)): 1.4 h
MRT ([1]; in vivo, mice, PO 10 mg/kg): 3.2 h
bioavailability ([1]; in vivo, mice, PO 10 mg/kg vs IV 2 mg/kg, read-out: F%): 111%
AUC(0-t) ([1]; in vivo, mice, PO 10 mg/kg, read-out: AUClast): 30.5 µM·h
Cmax ([1]; in vivo, mice, PO 10 mg/kg, read-out: Cmax): 9.37 µM
half-life ([1]; in vivo, mice, PO 10 mg/kg, read-out: T1/2 (converted)): 1.9 h

IC50 [3, 5]: 11.8 nM
IC50 [2]: > 1250 nM
IC50 (NCI-H28 (NF2 wide-type)): 958 nM
SMILES: Cn1ccc(-c2cc(P(C)(C)=O)cnc2Nc2ccc(C(F)(F)F)cc2)n1 [Example 17]

SMILES: CP(C)(=O)c1cnc(Nc2ccc(S(F)(F)(F)(F)F)cc2)c(-c2cn3c(n2)CCC3)c1 [Example 37]
IC50 ([3]; 24 h): 5.93 nM

From patent publication EP4596561A1, “PHOSPHORUS-CONTAINING COMPOUND, PHARMACEUTICAL COMPOSITION AND USE THEREOF” (Suzhou Genhouse Bio Co., Ltd., priority 2022, dated 2024)
